Test results reported in patent US9217150B2, “NRPS-PKS gene cluster and its manipulation and utility” (SINTEF TTO AS, priority 2008, dated 2015).

Test system: strain DSM 21069 (isolate MP28-13)
Experiment: Antibiotic resistance characteristics of strain DSM 21069
Assay type: cell-based, Streptomyces

Molecule	Antibiotic resistance (antibiotic at 5 μg/ml)	Antibiotic resistance (antibiotic at 10 μg/ml)	Antibiotic resistance (antibiotic at 20 μg/ml)	Antibiotic resistance (antibiotic at 50 μg/ml)
CN[C@@H]1[C@@H](O[C@H]2O[C@H](CO)[C@@H](N)[C@H](O)[C@H]2O)OC2C[C@@H](N)[C@@H](O[C@H]3[C@H](O)[C@@H](O)[C@H](N)C[C@@H]3N)OC2[C@@H]1O (some centres unmarked) [Apramycin]	sensitive	sensitive	sensitive	sensitive
CO[C@H]1/C=C/O[C@@]2(C)Oc3c(C)c(O)c4c(O)c(cc(O)c4c3C2=O)NC(=O)/C(C)=C\C=C\[C@H](C)[C@H](O)[C@@H](C)[C@@H](O)[C@@H](C)[C@H](OC(C)=O)[C@@H]1C [Rifamycin]	resistant	resistant	resistant	sensitive
[H]/N=C(/N)N[C@H]1[C@H](O)[C@@H](O)[C@H](O[C@@H]2O[C@@H](C)[C@](O)(C=O)[C@H]2O[C@@H]2O[C@@H](CO)[C@H](O)[C@@H](O)[C@@H]2NC)[C@@H](N/C(N)=N\[H])[C@@H]1O [Streptomycin]	resistant	resistant	resistant	resistant
C=C(NC(=O)C(=C)NC(=O)c1csc(C2=N[C@@H]3c4csc(n4)[C@H]4NC(=O)c5csc(n5)[C@H]([C@](C)(O)[C@@H](C)O)NC(=O)[C@H]5CSC(=N5)/C(=C/C)NC(=O)[C@H]([C@@H](C)O)NC(=O)c5csc(n5)[C@]3(CC2)NC(=O)[C@H](C)NC(=O)C(=C)NC(=O)[C@H](C)NC(=O)[C@H]([C@@H](C)CC)N[C@@H]2C=Cc3c([C@H](C)O)cc(nc3[C@H]2O)C(=O)O[C@@H]4C)n1)C(N)=O [Thiostrepton]	sensitive	sensitive	sensitive	sensitive
Neomycin	sensitive	sensitive	sensitive	sensitive
